The values below come from ChEMBL document CHEMBL1687697 (ACS Med Chem Lett, 2010).

The test has as its target Signal transducer and activator of transcription 3 (Homo sapiens) (UniProt P40763). Put plainly: Inhibition of STAT3 in human HeLa cells at 5 uM after 24 hrs by luciferase reporter gene assay. Format: cell-based. Background: Reporter assays use an easily measured gene product as a stand-in for the process of interest.

Calls of active or inactive are those of the source. The calls are words filed in the database; no cut-off is given here.

Signal transducer and activator of transcription 3 (Homo sapiens), sequence (P40763 whole entry): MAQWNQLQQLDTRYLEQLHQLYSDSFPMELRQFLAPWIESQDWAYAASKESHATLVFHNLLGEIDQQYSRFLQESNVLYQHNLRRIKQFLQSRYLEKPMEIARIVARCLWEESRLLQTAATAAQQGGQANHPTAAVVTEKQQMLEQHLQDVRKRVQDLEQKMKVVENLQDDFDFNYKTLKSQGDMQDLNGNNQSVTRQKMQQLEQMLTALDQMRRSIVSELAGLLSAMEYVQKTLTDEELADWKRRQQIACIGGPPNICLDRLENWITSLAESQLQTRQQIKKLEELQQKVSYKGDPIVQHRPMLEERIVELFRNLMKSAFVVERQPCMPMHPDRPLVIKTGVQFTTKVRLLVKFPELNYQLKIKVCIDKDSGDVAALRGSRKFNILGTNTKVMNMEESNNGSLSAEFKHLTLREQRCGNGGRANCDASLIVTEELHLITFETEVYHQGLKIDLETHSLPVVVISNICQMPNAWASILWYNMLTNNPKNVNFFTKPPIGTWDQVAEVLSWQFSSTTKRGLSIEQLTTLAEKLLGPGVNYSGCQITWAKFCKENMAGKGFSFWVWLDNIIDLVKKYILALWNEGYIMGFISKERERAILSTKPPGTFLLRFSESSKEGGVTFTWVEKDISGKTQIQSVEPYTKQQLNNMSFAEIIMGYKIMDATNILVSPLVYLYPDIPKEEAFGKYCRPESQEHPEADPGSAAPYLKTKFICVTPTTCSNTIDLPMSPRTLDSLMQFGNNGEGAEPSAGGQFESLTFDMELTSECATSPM

For the compound `CCOC(=O)c1c(CSc2ccccc2)n(C)c2cc(Br)c(O)c(CN(C)C)c12`, the inhibition result was “inactive”.
